Measured values reported in patent publication US7550469B2, “Heterocyclic amide derivatives and their use as dopamine D3 receptor ligands” (Aventis Pharmaceuticals Inc., priority 2001, dated 2009).
Like-named read-outs stand apart in the source and are kept apart here. Each block holds one molecule with its values, some of them ahead of it.

Molecular target: T1, cloned human dopamine D3 receptors (Homo sapiens, UniProt P35462)
T1 construct: expressed in transfected cells; membrane homogenate
Assay: [N-Methyl-3H]Spiroperidol binding to cloned human dopamine D3 receptors (Protocol 1)
Summary of the method: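 Radioligand displacement with [N-methyl-3H]spiroperidol used a physiological-salt Tris buffer (0.05 M, pH 7.7; NaCl 120 mM, KCl 5 mM, CaCl2 2 mM, MgCl2 1 mM) and membranes of a high-expressing stable CHO clone carrying human D3. Total ligand concentration came from measured added CPM; 0.1% ascorbic acid was optional for oxidizable compounds.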

[1] = the 18th table, read-out: D3 Ki
[2] = the 21st table, read-out: D3 Ki
[3] = the 14th table, read-out: D3 Ki
[4] = the 13th table, unit inferred, read-out: D3Ki
[5] = the 16th table, read-out: D3 Ki
[6] = the 15th table, read-out: D3 Ki

T1 sequence (P35462 whole entry): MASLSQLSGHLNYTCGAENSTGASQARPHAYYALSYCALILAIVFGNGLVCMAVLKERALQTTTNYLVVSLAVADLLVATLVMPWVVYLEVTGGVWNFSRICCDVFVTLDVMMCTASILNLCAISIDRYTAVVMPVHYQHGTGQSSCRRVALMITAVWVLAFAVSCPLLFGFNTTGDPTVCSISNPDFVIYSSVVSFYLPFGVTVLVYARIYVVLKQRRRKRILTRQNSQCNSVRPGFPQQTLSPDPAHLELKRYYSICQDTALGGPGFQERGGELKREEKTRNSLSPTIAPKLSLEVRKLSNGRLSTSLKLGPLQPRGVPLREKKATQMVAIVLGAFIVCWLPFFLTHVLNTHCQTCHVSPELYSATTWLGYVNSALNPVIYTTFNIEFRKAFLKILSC

Ki [1]: 0.046 µM
Compound: O=C(NCc1sccc1CN1CCN(c2csc3cc(F)ccc23)CC1)c1cccc2cc[nH]c12 [compound 826314]

Ki [2]: 0.317 µM
Compound: COc1cc(OC)cc(C(=O)NCCCCN2[C@H](C)CN(c3csc4cc(F)ccc34)C[C@@H]2C)c1 [compound 827048]

Ki [3]: 0.00127 µM
Compound: COc1cc(OC)cc(C(=O)NCCCCCN2CCN(c3csc4cc(F)ccc34)CC2)c1 [compound 826776]

Ki [4]: 0.0849 µM
Compound: O=C(NCCCCCN1CCC(c2noc3ccsc23)CC1)c1ccc(-c2ccccc2)cc1 [compound 816208]

Ki [4]: 0.044 µM
Compound: O=C(NCCCCN1CCCN(c2csc3cc(C(F)(F)F)ccc23)CC1)c1ccncc1 [S980645]

Ki (the 23rd table, read-out: D3 Ki): 0.0365 µM
Compound: Cc1nc(Cl)c(Cl)n1CCCNC[C@@H]1C[C@H]1CN1CCN(c2csc3cc(C(F)(F)F)ccc23)CC1 [compound 832817]

Ki (Table 2, read-out: D3K1): 0.101 µM
Ki [5]: 0.101 µM
Compound: O=C(NCCCN1CCCN(c2csc3cc(F)ccc23)CC1)c1cccc(F)c1 [compound 827142]

Ki [2]: 0.0798 µM
Compound: C[C@@H]1CN(c2csc3cc(F)ccc23)C[C@H](C)N1CCCCNC(=O)c1c[nH]c2ccccc12 [compound 826962]

Ki (the 26th table, read-out: D3 Ki): 0.7 µM
Compound: OC(CCN1CCC(c2noc3ccsc23)CC1)CNCCc1ccccc1 (centres unmarked) [compound 831945]

Compound: O=C(NCCCCN1C2CCC1CC(c1noc3cc(F)ccc13)C2)c1cccc(F)c1F (centres unmarked) [compound 816329]
Ki [6]: 0.356 µM

Ki [1]: 0.028 µM
Compound: O=C(NCc1sccc1CN1CCN(c2csc3cc(F)ccc23)CC1)c1ccc2cc[nH]c2c1 [compound 826328]

Ki [4]: 0.57 µM
Compound: O=C(NCCCCCN1CCC(c2noc3ccsc23)CC1)c1ccccc1 [compound 816212]

Ki (Table 2, read-out: D3K1): 0.186 µM
Ki (read-out: D3K1): 0.186 µM
Ki [3]: 0.186 µM
Compound: O=C(NC(CO)CCCN1CCN(c2csc3cc(C(F)(F)F)ccc23)CC1)c1ccc2c(c1)S(=O)(=O)c1ccccc1C2=O (centres unmarked) [compound 815685]

Ki (Table 2, read-out: D3K1): 0.0793 µM
Compound: O=C(NCC(CO)CCN1CCN(c2csc3cc(C(F)(F)F)ccc23)CC1)c1cc2ccccc2[nH]1 (centres unmarked) [818930ES]

Ki [2]: 0.0509 µM
Compound: C[C@@H]1CN(c2csc3cc(F)ccc23)C[C@H](C)N1CCCCNC(=O)c1ccc(OC(F)(F)F)cc1 [compound 827049]

Ki (Table 2, read-out: D3K1): 0.0191 µM
Ki [5]: 0.0191 µM
Compound: COc1cccc2oc(C(=O)NCCCCN3CCCN(c4csc5cc(F)ccc45)CC3)cc12 [compound 827128]

Ki (read-out: D3K1): 0.011 µM
Compound: O=C(NC/C=C\CN1CCN(c2csc3cc(C(F)(F)F)ccc23)CC1)c1ccc(F)cc1 [compound 826341]

Ki (the 17th table, read-out: D3 Ki): 0.0159 µM
Compound: O=C(c1cc2ccccc2s1)N(Cc1ccccc1)CC1CC1CN1CCCN(c2csc3cc(F)ccc23)CC1 (racemic) [compound 830398]

Ki (Table 2, read-out: D3K1): 0.225 µM
Ki (read-out: D3K1): 0.225 µM
Ki [3]: 0.225 µM
Compound: COc1ccc(C(=O)NC(CO)CCCN2CCN(c3csc4cc(C(F)(F)F)ccc34)CC2)cc1OC (centres unmarked) [compound 815689]

Compound: CCCCCCc1ccc(C(=O)NCCCCN2C3CCC2CC(c2noc4ccccc24)C3)cc1 (centres unmarked) [compound 816527]
Ki [6]: 0.0648 µM

Ki (read-out: D3K1): 0.041 µM
Compound: O=C(NCCCCN1CCN(c2csc3cc(C(F)(F)F)ccc23)CC1)c1ccccc1C(F)(F)F [compound 815553]

Ki [4]: 0.116 µM
Compound: O=C(NCCCCCN1CCC(c2noc3ccsc23)CC1)c1ccc2ccccc2c1 [compound 816197]

Ki [1]: 0.02 µM
Compound: O=C(NCc1sccc1CN1CCN(c2csc3cc(F)ccc23)CC1)c1ccc2[nH]ccc2c1 [compound 826327]

Ki (read-out: D3K1): 0.0041 µM
Compound: COc1ccc(C(=O)NCCCCN2CCN(c3c(Cl)sc4cc(F)ccc34)CC2)cc1OC [compound 815062]

Ki [2]: 0.0729 µM
Compound: C[C@@H]1CN(c2csc3cc(F)ccc23)C[C@H](C)N1CCCCNC(=O)c1cccc2[nH]ccc12 [compound 826963]

Ki (read-out: D3K1): 0.0049 µM
Compound: O=C(NCCCCN1CCN(c2c(Cl)sc3cc(F)ccc23)CC1)c1ccco1 [compound 815068]
